Experimental data published in PubChem BioAssay (NCI).
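Exposure lasted 48 hours, with cells grown in 96-well plates and compounds tested at five concentrations. TGI: concentration producing complete growth inhibition.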

Key:
Test in all cases: growth of human tumour cells (NCI), 48 h
RXF 393 renal = tested on: RXF 393 renal
SR leukemia = tested on: SR leukemia
MDA-N = tested on: MDA-N
CAKI-1 renal = tested on: CAKI-1 renal
A549 NSCLC = tested on: A549 NSCLC
NCI-H522 lung = tested on: NCI-H522 lung
OVCAR-8 ovarian = tested on: OVCAR-8 ovarian
MALME-3M melanoma = tested on: MALME-3M melanoma

SMILES	TGI (RXF 393 renal)	TGI (SR leukemia)	TGI (MDA-N)	TGI (CAKI-1 renal)	TGI (A549 NSCLC)	TGI (NCI-H522 lung)	TGI (OVCAR-8 ovarian)	TGI (MALME-3M melanoma)
O=c1c2c3c(sc2nc2n1sc1nc4sc5c(c4c(=O)n12)CCCC5)CCCC3	38.5 µM	> 84.9 µM	97.4 µM	36.4 µM	> 100 µM	31.1 µM	> 100 µM	
CC(=O)Nc1ccc2cc(C#N)c(=O)[nH]c2n1	> 100 µM		> 100 µM	> 100 µM	> 100 µM	> 100 µM	> 100 µM	> 100 µM
NN/C(=N\S(=O)(=O)c1cc(S(=O)(=O)c2ccccc2)cs1)Nc1ccc(Cl)cc1	53.9 µM	48.5 µM	59.2 µM	> 100 µM	> 100 µM	41.3 µM	> 100 µM	
C=C(C)C1Cc2c(cc3c(c2O)c(=O)c2ccccc2n3C)O1 (stereo unspecified)	8.52 µM	4.95 µM	12.2 µM	11.2 µM	24.9 µM		5.67 µM	3.41 µM
O=[N+]([O-])c1ccc(C2Nn3c(nnc3-c3cccc([N+](=O)[O-])c3)S2)cc1 (stereo unspecified)	> 100 µM	> 100 µM		> 100 µM	> 100 µM	> 100 µM	> 100 µM	> 100 µM
COC(=O)C(Cc1c(-c2[nH]c3ccccc3c2CC(NC(C)=O)C(=O)OC)[nH]c2ccccc12)NC(C)=O (stereo unspecified)	> 100 µM		> 100 µM	> 100 µM	> 100 µM	> 100 µM	> 100 µM	> 100 µM
CCN(CC)CCC(=O)c1ccc(Cl)c(Cl)c1	25.3 µM	64.2 µM			> 100 µM	32.8 µM	> 100 µM	41.7 µM
Cc1ccc(S(=O)(=O)NC(=O)NC(CCCCN)C(=O)O)cc1 (stereo unspecified)	> 100 µM	> 100 µM	> 100 µM		> 100 µM	> 100 µM	> 100 µM	> 100 µM
Cc1ccc(NC(=O)CC(=O)N2N=C(N(c3ccccc3)c3ccccc3)CC2c2ccccc2)cc1 (stereo unspecified)	> 100 µM			> 100 µM	> 100 µM	> 100 µM	> 100 µM	
COc1ccc(/C=N/NS(=O)(=O)c2ccc(/C=C3\NC(=O)NC3=O)cc2)cc1	> 100 µM		> 100 µM	> 100 µM	> 100 µM		> 100 µM	> 100 µM
O=c1nc(N2CCCCC2)sc2[nH]c3ccccc3c12		> 100 µM	> 100 µM	> 100 µM	> 100 µM	> 100 µM	> 100 µM	> 100 µM
CN1CC=C(C#CC(C)(C)O)CC1	> 37.5 µM	> 37.5 µM	> 37.5 µM	> 37.5 µM	> 37.5 µM		> 37.5 µM	> 37.5 µM
C#CCNCC(=O)O	> 100 µM		> 100 µM	> 100 µM	> 100 µM	> 100 µM	> 100 µM	> 100 µM
CC(=O)OC[C@@]1(C)[C@@H]2[C@@H]3[C@@]4(CO[C@]3(C)C(=O)[C@@]3(OC(C)=O)C[C@H](C)[C@H](OC(C)=O)[C@@H]3[C@H]4OC(C)=O)[C@H](OC(=O)c3ccccc3)C[C@@H]21	> 100 µM		> 100 µM	> 100 µM	> 100 µM	> 100 µM	> 100 µM	> 100 µM
CN(C)/C=N/c1cc(=O)n(C)c(=O)n1C	> 100 µM		> 100 µM	> 100 µM	> 100 µM	> 100 µM	> 100 µM	> 100 µM
C=C1C(=O)O[C@H]2C(=O)[C@H](C)CCC/C(C)=C/CC[C@@]3(C)O[C@@H]3C[C@@H]12		10.5 µM	11.5 µM	3.23 µM	21.4 µM	4.06 µM	3.59 µM	
S=c1[nH]nc(COc2ccc(Cl)cc2)n1-c1ccccc1	> 100 µM		> 100 µM	65.8 µM	> 100 µM	23.3 µM	> 100 µM	> 100 µM
O=C(O[C@H](/C=C/c1ccccc1)P1(=O)N(Cc2ccccc2)[C@H]2CCCC[C@@H]2N1Cc1ccccc1)c1ccccc1		> 100 µM	> 100 µM	5.93 µM	> 100 µM	> 100 µM	> 100 µM	25.6 µM
Cc1cc2c(cc1Cl)SC(NNC(=O)c1ccccc1)=NS2(=O)=O	> 10 µM			> 10 µM	> 10 µM	> 10 µM	> 10 µM	> 10 µM
CC(=O)Nn1c(Cc2ccc(Cl)cc2)nn(C)c1=O		> 100 µM	> 100 µM	> 100 µM	> 100 µM	> 100 µM	> 100 µM	> 100 µM

SMILES	TGI (RXF 393 renal)	TGI (SR leukemia)	TGI (MDA-N)	TGI (CAKI-1 renal)	TGI (A549 NSCLC)	TGI (NCI-H522 lung)	TGI (OVCAR-8 ovarian)	TGI (MALME-3M melanoma)
CC(/C=C/c1ccccc1)=N\NC(=S)N/N=C(C)/C=C/c1ccccc1	40.7 µM	> 100 µM	> 100 µM		> 100 µM	69 µM	64.5 µM	> 100 µM
CNc1ccc(C)cc1S(=O)(=O)c1ccccc1[N+](=O)[O-]	> 100 µM	> 100 µM	> 100 µM		> 100 µM	> 100 µM	> 100 µM	> 100 µM
O=C(Oc1ccc(C(c2c(O)c3ccccc3oc2=O)c2c(O)c3ccccc3oc2=O)cc1)c1ccc(C(=O)c2ccccc2)cc1	83.6 µM	55.7 µM	> 100 µM	57.4 µM	55.8 µM	30.6 µM	33.8 µM	
c1ccc(C2(c3cc4ccccc4[nH]3)OCCO2)nc1	> 100 µM			> 100 µM	> 100 µM		> 100 µM	> 100 µM
O=S(=O)(Cc1ccccc1)c1nnc(S(=O)(=O)c2ccc(Cl)cc2)s1	33.8 µM		33 µM	54 µM	68.1 µM	30.8 µM	42.8 µM	
CC(=O)O[C@H]1[C@@H](OC2CCCC2(c2ccccc2)c2ccccc2)O[N+]([O-])=C[C@@H]1c1ccccc1 (stereo partly specified)	8.48 µM	> 20.3 µM	15.6 µM	11 µM	30.9 µM	2.62 µM	6.53 µM	
C#CC(O)/C=C/C(O)CCCC(O)CC#CC(O)C#CCCCCC(O)/C=C/CCCCCC(=O)CCCCCCCCCCCCCC(O)C(O)C#CC(=O)O (stereo unspecified)		19.1 µM	> 25 µM	> 25 µM	> 25 µM	9.83 µM	> 25 µM	> 25 µM
COC(=O)C1=C(C)NC(CF)=C(C(=O)OC)C1c1cccc2c(=O)c3ccccc3oc12 (stereo unspecified)	> 100 µM	> 100 µM		62.3 µM	> 100 µM	> 100 µM	> 100 µM	83.6 µM
COC1=CC(=O)C2=C(C1=O)[C@H]1CC[C@]3(C)C(=O)CC[C@H]3[C@@H]1CC2	67.8 µM	> 100 µM	65.1 µM	77 µM	> 100 µM	59.8 µM	33.1 µM	
CC(C)(C)OC(=O)NC(Cc1ccc(OC(C)(C)C)cc1)C(=O)N[C@H]1CC[C@H](C(=O)O)C1 (stereo partly specified)		> 100 µM	> 100 µM		> 100 µM	> 100 µM	> 100 µM	
O=[N+]([O-])c1ccc(C2=NOC(c3ccccc3)N2C23CC4CC(CC(C4)C2)C3)cc1 (stereo unspecified)			58 µM	3.23 µM	96.7 µM	35.3 µM	48.4 µM	85.5 µM
COc1ccc(NCc2cccc3c(=O)c4ccc(Cl)cc4oc23)cc1		> 100 µM	> 100 µM	> 100 µM	> 100 µM	> 100 µM	> 100 µM	> 100 µM
O=S(=O)(N=[Se](=O)(c1ccccc1)c1ccccc1)c1ccccc1		> 100 µM	> 100 µM	> 100 µM		> 100 µM	> 100 µM	
CC1CCC2C(C)C(OC(=O)CCC(=O)O)OC3OC4(C)CCC1C32OO4 (stereo unspecified)		3.37 µM	38.7 µM	> 100 µM	29.9 µM		> 100 µM	
c1ccc(CN2C3C4N(Cc5ccccc5)C2C2N(Cc5ccccc5)C(C(N2Cc2ccccc2)N4Cc2ccccc2)N3Cc2ccccc2)cc1	> 100 µM	> 100 µM	> 100 µM	> 100 µM	> 100 µM	> 100 µM	> 100 µM	
O=C(c1ccc(Cl)c(Cl)c1)N(C(=S)OC12CC3CC(CC(C3)C1)C2)c1ccccc1	> 100 µM		> 100 µM	> 100 µM	> 100 µM	41.7 µM	> 100 µM	> 100 µM
COC(=O)C1=C(N)C2=C(N)Oc3ccccc3C2CC1=C(C#N)C#N (stereo unspecified)	> 100 µM	> 100 µM		72.2 µM	> 100 µM	40.7 µM	55.7 µM	58.1 µM
CN(C)CCNc1ncnc2nc(-c3ccccc3)c(-c3ccccc3)nc12	> 100 µM		> 100 µM	> 100 µM	> 100 µM	> 100 µM	> 100 µM	> 100 µM
CSc1ncc2c(C#N)c3n(C)c4ccccc4n3c(=O)c2n1	> 100 µM	> 100 µM		> 100 µM	> 100 µM		> 100 µM	> 100 µM
